Measurements reported in patent publication US10865216B2, “Tricyclic Gyrase inhibitors” (MERCK SHARP & DOHME CORP., priority 2012, dated 2020).
Like-named read-outs stand apart in the source and are kept apart here.

What was measured:
E. coli ATCC 25922 = assay: MIC, E. coli ATCC 25922; assay type: cell-based; settings: Table 14; R2 is a 5 membered heterocycle; EC8 not defined
S. aureus ATCC 13709 = assay: MIC, S. aureus ATCC 13709; assay type: cell-based; settings: Table 14; R2 is a 5 membered heterocycle
[1] = system: S. aureus ATCC 13709 + mouse serum; assay: MIC, SA + serum (S. aureus ATCC 13709, MHCA + mouse serum); assay type: cell-based; settings: Table 14; R2 is a 5 membered heterocycle
[2] = amide bond, BOP, 40.0 °C
[3] = amide bond, BOP/Et3N then EDC, DCM/NMP 1:1, 40.0 °C

SMILES	EC8 MIC (E. coli ATCC 25922) [µg/mL]	SA MIC (S. aureus ATCC 13709) [µg/mL]	SA+ serum MIC [1] [µg/mL]	also measured
CNc1cc(F)cc2c1[nH]c1nc(Sc3nc4ccccc4s3)nc(N3C[C@H]4C[C@@H]3C[C@H]4N)c12	16	1	4	
CNc1cc(F)cc2c1[nH]c1nc(Sc3nnc(C)s3)nc(N3C[C@H]4C[C@@H]3C[C@H]4N)c12	≤ 0.5	≤ 0.5	≤ 0.5	
CNc1cc(F)cc2c1[nH]c1nc(Sc3nc(C(=O)OC)cs3)nc(N3CC4CC(N)C4C3)c12 (centres unmarked)	≤ 0.5	≤ 0.5	2	
CNc1cc(F)cc2c1[nH]c1nc(Sc3nc(C(=O)O)cs3)nc(N3CC4CC(N)C4C3)c12 (centres unmarked)	> 16	≤ 0.5	2	
CNc1cc(F)cc2c1[nH]c1nc(Sc3nc(Br)cs3)nc(N3CC4CC(N)C4C3)c12 (centres unmarked)	≤ 0.5	≤ 0.5	≤ 0.5	
CN(C(=O)OC(C)(C)C)c1cc(F)cc2c1[nH]c1nc3nc(c12)NCCCCCCNC(=O)CSc1ncc(cn1)O3				ring closure, yield of all isomers ([2]; from CN(C(=O)OC(C)(C)C)c1cc(F)cc2c1[nH]c1nc(Oc3cnc(SCC(=O)O)nc3)nc(NCCCCCCN)c12, then EDC (Et3N), DCM/NMP, 30.0 mM, 3.0 h): 72%
CN(C(=O)OC(C)(C)C)c1cc(F)cc2c1[nH]c1nc3nc(c12)NCCCCCCNC(=O)c1cncc(c1)O3				ring closure, yield of all isomers ([2]; from CN(C(=O)OC(C)(C)C)c1cc(F)cc2c1[nH]c1nc(Oc3cncc(C(=O)O)c3)nc(NCCCCCCN)c12, then EDC (Et3N), DCM/NMP, 18.5 mM, 3.0 h): 74%
CN(C(=O)OC(C)(C)C)c1cc(F)cc2c1[nH]c1nc3nc(c12)NCCCCNC(=O)CSc1ncc(cn1)O3				ring closure, yield after HPLC ([3]; from CN(C(=O)OC(C)(C)C)c1cc(F)cc2c1[nH]c1nc(Oc3cnc(SCC(=O)O)nc3)nc(NCCCCN)c12, 17-membered ring, 36.5 mM): 34%
CNc1cc(F)cc2c1[nH]c1nc3nc(c12)N([C@H](CN)COCCCN)C(=O)CSc1ncc(cn1)O3				ring closure, yield after HPLC ([3]; from CNc1cc(F)cc2c1[nH]c1nc(Oc3cnc(SCC(=O)O)nc3)nc(N[C@H](CN)COCCCN)c12, 38.5 mM): 57%
CNc1cc(F)cc2c1[nH]c1nc3nc(c12)N1CC(CNC(=O)COc2cc(C#N)cc(c2)O3)C1				ring closure, yield of all isomers ([2]; from CNc1cc(F)cc2c1[nH]c1nc(Oc3cc(C#N)cc(OCC(=O)O)c3)nc(N3CC(CN)C3)c12, EDC (Et3N), DCM/NMP (1:1), 40.0 mM, 2.0 h): 17%
